{
  "source": "patent US12115159B2",
  "about": "“Pharmaceutical composition for preventing or treating nonalcoholic fatty liver disease, containing GPR119 ligand as active ingredient” (DONG-A ST CO., LTD., priority 2018, dated 2024)",
  "key": {"[1]": {"tested_on": "ob/ob mouse with induced non-alcoholic steatohepatitis", "assay": "Histological examination of liver (HE, Masson's Trichrome / Sirius stain) in ob/ob mouse model with induced non-alcoholic steatohepatitis", "format": "in vivo", "conditions": "100 mg/kg/day mixed in special diet for 10 weeks, vs. Ob-NASH", "method": "(§1) A six-week-old male ob/ob mouse with leptin deficiency was fed with a special diet containing high fat, high fructose, and high cholesterol for 10 weeks, and thus was induced to develop non-alcoholic steatohepatitis. A mixed form of diet was prepared so that a daily dose of (3-(4-(3-(1-(5-ethylpyrimidin-2-yl)piperidin-4-yl)propoxy)-2,6-difluorophenyl)-5-isopropyl-1,2,4-oxadiazole (hereinafter, “compound 1”) reaches 100 mg/kg/day in the compound represented by the chemical formula 1, and supplied to the mouse from a time point of starting the supply of the special diet for 10 weeks.\nFor a histological examination, the prepared mouse model with induced non-alcoholic steatohepatitis was subjected to autopsy to fix an isolated liver tissue in 10% formalin and prepare a paraffin block, thereby obtaining a 2 μm-thick tissue section. To confirm infiltration of inflammatory cells, Hematoxylin and Eosin (HE) stain was performed using an automatic staining machine (Autostainner XL, Leica), and the results thereof are shown in FIGS. 1 and 2.\nThen, for evaluation of fibrosis, fibers in liver tissue were specifically stained by using Masson's Trichrome stain or Sirius Res stain, and the results thereof are shown in FIGS. 2 and 3."}, "[2]": {"tested_on": "ob/ob mouse with induced non-alcoholic steatohepatitis", "assay": "AST and ALT measurement in blood, ob/ob NASH mouse model", "format": "in vivo", "conditions": "100 mg/kg/day mixed in special diet for 10 weeks, plasma, vs. Ob-NASH, FIG. 4", "method": "as §1\nThe mouse model with induced non-alcoholic steatohepatitis was subjected to autopsy, after which plasma was separated therefrom, so as to quantify aspartate aminotransferase (AST) and alanine aminotransferase (ALT) by using an automatic blood analyzer (Konelab 20i), and the results thereof are shown in FIG. 4."}, "[3]": {"tested_on": "ob/ob mouse with induced non-alcoholic steatohepatitis", "assay": "Concentration of proteins associated with inflammation and fibrosis in liver tissues (ELISA), ob/ob NASH mouse model", "format": "in vivo", "conditions": "100 mg/kg/day mixed in special diet for 10 weeks, vs. Ob-NASH, FIG. 5", "method": "as §1\nTo evaluate an effect on the expression of inflammation-related genes and fibrosis-related proteins in liver tissues, the liver tissues obtained from the mouse model were put into RIPA buffer (Cell Signaling) and pulverized with TissueLyser II™ (Quiagen), after which a total protein concentration was quantified with Pierce BCA Protein Assay Kit (Thermo Fisher Scientific) and a protein concentration of Mouse Ccl2 (=Mcp1; R&D Systems, MJE00) and Timp1 (R&D Systems, MTM100) in the liver tissues was quantified by using a commercially available ELISA kit, so that the results thereof are shown in FIG. 5."}, "[4]": {"tested_on": "ob/ob mouse with induced non-alcoholic steatohepatitis", "assay": "Expression of genes associated with inflammation and fibrosis in liver tissues (real-time PCR), ob/ob NASH mouse model", "format": "in vivo", "conditions": "100 mg/kg/day mixed in special diet for 10 weeks, FIG. 6", "method": "as §1\nTo measure an expression level of inflammation-related genes and fibrosis-related genes in liver tissues, Trizol® (Invitrogen) was added to the liver tissues collected from the mouse model, after which a total RNA was extracted from the tissues according to the method provided by the manufacturer, and then cDNA was synthesized by using a reverse transcriptase. Then, a real-time polymerase chain reaction was performed in LightCycler®480 Instrument II (RocheLifeScience) equipment by using a reagent of SYBR Green I Master Mix (Roche, 04707516001), and the results thereof are shown in FIG. 6."}, "human monocytes (THP-1)": {"tested_on": "human monocytes (THP-1)", "assay": "Effect on differentiation of human monocytes into macrophages (IL-1β secretion, ELISA)", "format": "cell-based", "conditions": "THP-1 co-treated with compound during PMA (50 ng/ml) differentiation for 48 hours, then LPS (0.5 ng/ml) for four hours; FIG. 8", "method": "(§2) Then, THP-1 monocytes were treated with PMA (50 ng/ml) for 48 hours to be differentiate into macrophages, while the compound 1 was co-treated, then replaced with serum-free medium, and then treated with lipopolysaccharides (LPS, 0.5 ng/ml) for four hours so as to quantity interleukin-1β (IL-1β, R&D Systems, DY201) secreted into the medium by using a commercialized ELISKA kit and evaluate an effect on the differentiation of monocytes, so that the results thereof are shown in FIG. 8."}, "[5]": {"tested_on": "differentiated macrophages (THP-1)", "assay": "Effect on activation of differentiated macrophages by LPS (IL-1β secretion, ELISA)", "format": "cell-based, human", "conditions": "differentiated macrophages treated with compound for 48 hours, then LPS; FIG. 9", "method": "as §2\nIn addition, after treating the differentiated macrophages with the compound 1 for 48 hours, the secreted IL-1β was quantified by the same method as above with regard to the activation of immune cells by LPS, so as to evaluate an effect on the activation of differentiated macrophages."}, "[6]": {"tested_on": "C57BL/6J mouse with induced non-alcoholic steatohepatitis", "assay": "Histological examination (HE) and triglyceride content of liver, C57BL/6J DIO-NASH mouse model", "format": "in vivo", "conditions": "Compd1 (H) group, in special diet for eight weeks after induction, vs. DIO-NASH, FIGS. 10 and 11", "method": "(§3) A six-week-old male C57BL/6J mouse was fed with a special diet comprising high fat, high fructose, and high cholesterol for at least 26 weeks, and thus was induced to develop non-alcoholic steatohepatitis. It was confirmed that fatty liver and inflammatory fibrosis are induced through a biopsy of liver tissues three weeks before drug supply, and mice were evenly distributed into each group based on the area of collagen stained in the liver tissues. A feed was prepared by mixing the compounds according to the present invention in a special diet and supplied for additional eight weeks. According to the diet supplied to the mice, each of the groups was classified as a control group fed with a normal diet (Normal), a positive control group in which mice with induced non-alcoholic steatohepatitis due to the special diet were not supplied with a drug (DIO-NASH), and a group in which mice with induced non-alcoholic steatohepatitis were supplied with the compound 1 in an amount of 30 mg/kg/day (L) and […] (H) (Cmpd1 (L) and Cmpd1 (H), respectively).\nFor a histological examination, the prepared C57BL/6J mouse model was subjected to autopsy to fix an isolated liver tissue in 10% formalin and prepare a paraffin block, thereby obtaining a 2 μm-thick tissue section. […]"}, "[7]": {"tested_on": "C57BL/6J mouse with induced non-alcoholic steatohepatitis", "assay": "NAFLD activity score (NAS) before and after administration, C57BL/6J DIO-NASH mouse model", "format": "in vivo", "conditions": "compound in special diet for eight weeks, FIG. 12", "method": "as §3"}, "[8]": {"tested_on": "C57BL/6J mouse with induced non-alcoholic steatohepatitis", "assay": "Evaluation of fibrosis (Sirius stain, type I collagen immunostaining), C57BL/6J DIO-NASH mouse model", "format": "in vivo", "conditions": "C57BL/6J DIO-NASH_Compd1, compound in special diet for eight weeks, vs. DIO-NASH; FIGS. 13 and 14", "method": "as §3\nThen, for the evaluation of fibrosis, the fibers of the liver tissues were specifically stained with Sirius Res stain in the mice of each group, and a content of type I collagen in the liver tissues was measured by an imaging analysis method after immunostaining, so that the results thereof are shown in FIGS. 13 and 14."}, "[9]": {"tested_on": "C57BL/6J mouse with induced non-alcoholic steatohepatitis", "assay": "AST and ALT measurement in blood, C57BL/6J DIO-NASH mouse model", "format": "in vivo", "conditions": "C57BL/6J DIO-NASH_Compd1, compound in special diet for eight weeks, plasma, vs. DIO-NASH; FIG. 15", "method": "as §3\nEach of the mouse groups was subjected to autopsy, after which plasma was separated therefrom, so as to quantity aspartate aminotransferase (AST) and alanine aminotransferase (ALT) by using an automatic blood analyzer (Konelab 20i)."}, "[10]": {"tested_on": "C57BL/6J mouse with induced non-alcoholic steatohepatitis", "assay": "Change in gene expression in liver tissues (RNAseq), C57BL/6J DIO-NASH mouse model", "format": "in vivo", "conditions": "C57BL/6J DIO-NASH_Compd1, eight weeks after drug administration, vs. DIO-NASH, FIG. 16", "method": "as §3\nTo analyze a change in total gene expression in liver tissues isolated from the above mouse model in eight weeks after drug administration, the isolated RNA fraction was used to generate a library by using NeoPrep (Illumina), and subjected to RNAseq profiling through NexSeq 500 (Illumina), after which bioinformatics analysis was performed and changes in major gene groups were classified for each function, so that the results thereof are shown in FIG. 16."}},
  "data": [
    {"smiles": "CCc1cnc(N2CCC(CCCOc3cc(F)c(-c4noc(C(C)C)n4)c(F)c3)CC2)nc1", "note": "[compound 1, 3-(4-(3-(1-(5-ethylpyrimidin-2-yl)piperidin-4-yl)propoxy)-2,6-difluorophenyl)-5-isopropyl-1,2,4-oxadiazole]", "values": [
      {"measurement": "infiltration of inflammatory cells in liver tissues", "setting": "[1]; FIGS. 1 and 2", "result": "significantly inhibited"},
      {"measurement": "fibrosis of liver tissues", "setting": "[1]; FIGS. 2 and 3", "result": "significantly inhibited"},
      {"measurement": "ALT level in blood", "setting": "[2]", "result": "significant inhibition of increase"},
      {"measurement": "AST level in blood", "setting": "[2]", "result": "significant inhibition of increase"},
      {"measurement": "protein level of Ccl2 (=Mcp1) in liver tissues", "setting": "[3]", "result": "significantly inhibited"},
      {"measurement": "protein level of Timp1 in liver tissues", "setting": "[3]", "result": "significantly inhibited"},
      {"measurement": "increase in expression of fibrosis-related genes (Tgfb1, Col1a, Timp1, Timp2, Acta2) in liver tissues", "setting": "[4]", "result": "significantly inhibited"},
      {"measurement": "increase in expression of inflammation-related genes (Ccl2, Lgals3, Tnfa) in liver tissues", "setting": "[4]", "result": "significantly inhibited"},
      {"measurement": "IL-1β secretion caused by activation of macrophages", "setting": "human monocytes (THP-1)", "result": "decreased in a concentration-dependent manner"},
      {"measurement": "IL-1β secretion caused by activation of macrophages", "setting": "[5]", "result": "decreased in a concentration-dependent manner"},
      {"measurement": "fat deposits in liver tissues", "setting": "[6]", "result": "significant decrease"},
      {"measurement": "infiltration of inflammatory cells in liver tissues", "setting": "[6]", "result": "significant decrease"},
      {"measurement": "worsening of disease by NAFLD activity score (NAS), before vs. after administration", "setting": "[7]; C57BL/6J DIO-NASH, disease worsened in 50% of the DIO-NASH group", "result": "no individual was deteriorated"},
      {"measurement": "share of group in which the disease was ameliorated by NAFLD activity score (NAS)", "setting": "[7]; C57BL/6J DIO-NASH_Compd1 group", "result": "about 50%"},
      {"measurement": "cross-linking formation in fibers of the liver tissues", "setting": "[8]", "result": "remarkable decrease"},
      {"measurement": "type I collagen in liver tissues", "setting": "[8]", "result": "significant decrease"},
      {"measurement": "concentration of ALT in blood", "setting": "[9]", "result": "significantly inhibited increase"},
      {"measurement": "concentration of AST in blood", "setting": "[9]", "result": "significantly inhibited increase"},
      {"measurement": "expression of fibrosis markers in liver tissues", "setting": "[10]", "result": "remarkable decrease"},
      {"measurement": "expression of macrophage markers in liver tissues", "setting": "[10]", "result": "remarkable decrease"},
      {"measurement": "expression of monocyte attractants in liver tissues", "setting": "[10]", "result": "remarkable decrease"}
    ]}
  ]
}
